The values that follow come from US11767323B2, “Tricyclic pyridone compounds as JAK2 V617F inhibitors” (Incyte Corporation, priority 2020, dated 2023).

pIC50: −log10 of the molar value. Some results are limits rather than exact numbers.

The target of assay [1] is pseudo-kinase domain (JH2, amino-acids 536-812) of human V617F mutant JAK2 (Homo sapiens (Human), UniProt O60674, F794H/V617F/W659A/W777A). Put plainly: JAK2 LanthaScreen JH2-V617F Binding Assay. The conditions noted are these: JAK2 JH2-V617F 0.26 nM, 50 nM tracer, 1 hour at 25° C.; read-out: JH2 BIND V617F IC50. How it is done:
Example C. JAK2 LanthaScreen JH2-V617F Binding Assay
(§1) JAK2 JH2-V617F binding assay utilizes pseudo-kinase domain (JH2, amino-acids 536-812 with 3 surface mutations W659A, W777A, F794H) of human V617F mutant JAK2 expressed as C-terminal His-Avi-tagged, biotinylated protein in a baculovirus expression system (BPS Bioscience, Catalog #79498). The assay was conducted in black 384-well polystyrene plates in a final reaction volume of 20 μL. JAK2 JH2-V617F (0.26 nM) was incubated with compounds (100 nL serially diluted in DMSO) in the presence of 50 nM Fluorescent JAK2-JH2 Tracer (MedChem Express Catalog #HY-102055) and 0.25 nM Streptavidin-Tb cryptate (Cisbio Part #610SATLB) in assay buffer (50 mM Tris, pH=7.5, 10 mM MgCl2, 0.01% Brij-35, 0.1% BSA, 1 mM EGTA, 5% Glycerol and 5 mM DTT). Non-specific binding was accessed in the presence of 2 mM ATP. After incubation for 1 hour at 25° C., LanthaScreen signals were read on a PHERAstar FS plate reader (BMG LABTECH). Data was analyzed with IDBS XLfit and GraphPad Prism 5.0 software using a four parameter dose response curve to determine IC50 for each compound.
On the technique in general: Time-resolved FRET reads energy transfer from a long-lived donor to a nearby acceptor.

For assay [2], the target named is pseudo-kinase domain (JH2, amino-acids 536-812) of human Wild Type JAK2 (Homo sapiens (Human), UniProt O60674, F794H/W659A/W777A). The assay can be described thus: JAK2 LanthaScreen JH2-WT Binding Assay. The conditions noted are these: JAK2 JH2-WT 0.145 nM, 50 nM tracer, 1 hour at 25° C.; read-out: JH2 BIND WT IC50. How it is done:
Example B. JAK2 LanthaScreen JH2-WT Binding Assay
as §1, with “JH2-WT” for “JH2-V617F”, “Wild Type” for “V617F mutant”, “#79463).” for “#79498).”, “JH2-WT (0.145” for “JH2-V617F (0.26”, “LAB TECH).” for “LABTECH).”

Assay [3] has as its target catalytic domain (JH1, amino acids 808-1132) of human JAK2 (Homo sapiens (Human), UniProt O60674). Put plainly: JAK2 HTRF Enzyme Activity Assay. It is filed as biochemical. The conditions noted are these: JAK2 0.015 nM, ATP (30 μM or 1 mM), 60 minutes at 25° C. How it is done: Example D. JAK2 HTRF Enzyme Activity Assay
JAK2 enzyme activity assays utilize catalytic domain (JH1, amino acids 808-1132) of human JAK2 expressed as N-terminal His-tagged protein in a baculovirus expression system (BPS Bioscience, Catalog #40450). The assays was conducted in black 384-well polystyrene plates in a final reaction volume of 20 μL. JAK2 (0.015 nM) was incubated with compounds (100 nL serially diluted in DMSO) in the presence of ATP (30 μM or 1 mM) and 500 nM Biotin-labeled EQEDEPEGDYFEWLE (SEQ ID NO.: 1) peptide (BioSource International, custom synthesis) in assay buffer (50 mM Tris, pH=7.5, 10 mM MgCl2, 0.01% Brij-35, 0.1% BSA, 1 mM EGTA, 5% Glycerol and 5 mM DTT) for 60 minutes at 25° C. The reactions were stopped by the addition of 10 μL of detection buffer (50 mM Tris, pH 7.8, 0.5 mg/mL BSA, 150 mM NaCl), supplemented with EDTA, LANCE Eu-W1024 anti-phosphotyrosine (PY20), (PerkinElmer, Catalog #AD0067) and Streptavidin SureLight APC (PerkinElmer Catalog #CR130-100), for a final concentration of 15 mM, 1.5 nM and 75 nM, respectively. HTRF signals were read after 30 minutes incubation at room temperature on a PHERAstar FS plate reader (BMG LAB TECH). Data was analyzed with IDBS XLfit and GraphPad Prism 5.0 software using a four parameter dose response curve to determine IC50 for each compound.

The target in assay [4] is catalytic domain (JH1, amino acids 826-1132) of human JAK2 (Homo sapiens (Human), UniProt O60674). Put plainly: JAK2 LanthaScreen JH1 Binding Assay. The conditions noted are these: JAK2 JH1 1.5 nM, 50 nM tracer, 2 hours at 25° C.; read-out: JH1 BIND IC50. As for the experimental part: Example A. JAK2 LanthaScreen JH1 Binding Assay
JAK2 JH1 binding assay utilizes catalytic domain (JH1, amino acids 826-1132) of human JAK2 expressed as N-terminal FLAG-tagged, biotinylated protein in a baculovirus expression system (Carna Biosciences, Product #08-445-20N). The assay was conducted in black 384-well polystyrene plates in a final reaction volume of 20 μL. JAK2 JH1 (1.5 nM) was incubated with compounds (100 nL serially diluted in DMSO) in the presence of 50 nM Fluorescent JAK2-JH1 Tracer and 0.5 nM Streptavidin-Tb cryptate (Cisbio Part #610SATLB) in assay buffer (50 mM Tris, pH=7.5, 10 mM MgCl2, 0.01% Brij-35, 0.1% BSA, 1 mM EGTA, 5% Glycerol and 5 mM DTT). Non-specific binding was accessed in the presence of 2 mM ATP. After incubation for 2 hours at 25° C., LanthaScreen signals were read on a PHERAstar FS plate reader (BMG LABTECH). Data was analyzed with IDBS XLfit and GraphPad Prism 5.0 software using a four parameter dose response curve to determine IC50 for each compound.

pseudo-kinase domain (JH2, amino-acids 536-812) of human V617F mutant JAK2, sequence (O60674 536-812 V617F/W659A/W777A/F794H): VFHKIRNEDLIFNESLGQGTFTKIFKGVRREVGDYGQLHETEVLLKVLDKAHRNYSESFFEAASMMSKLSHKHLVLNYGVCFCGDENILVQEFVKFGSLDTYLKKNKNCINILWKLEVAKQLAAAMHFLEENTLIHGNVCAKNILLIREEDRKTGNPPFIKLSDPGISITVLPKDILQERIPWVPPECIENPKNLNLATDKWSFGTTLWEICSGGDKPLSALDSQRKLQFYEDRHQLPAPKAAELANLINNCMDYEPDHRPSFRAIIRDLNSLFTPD
catalytic domain (JH1, amino acids 826-1132) of human JAK2, sequence (O60674 826-1132): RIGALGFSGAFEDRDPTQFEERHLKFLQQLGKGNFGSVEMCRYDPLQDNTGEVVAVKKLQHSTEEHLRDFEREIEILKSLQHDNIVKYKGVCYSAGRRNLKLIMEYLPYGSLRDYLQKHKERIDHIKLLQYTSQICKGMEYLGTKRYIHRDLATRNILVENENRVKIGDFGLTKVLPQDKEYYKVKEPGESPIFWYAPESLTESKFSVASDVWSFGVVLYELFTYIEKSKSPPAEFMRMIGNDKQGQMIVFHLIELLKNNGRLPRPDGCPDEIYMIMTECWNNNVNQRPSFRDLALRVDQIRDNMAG
pseudo-kinase domain (JH2, amino-acids 536-812) of human Wild Type JAK2, sequence (O60674 536-812 W659A/W777A/F794H): as the sequence (O60674 536-812 V617F/W659A/W777A/F794H) above, with F82V counted along it
catalytic domain (JH1, amino acids 808-1132) of human JAK2, sequence (O60674 808-1132): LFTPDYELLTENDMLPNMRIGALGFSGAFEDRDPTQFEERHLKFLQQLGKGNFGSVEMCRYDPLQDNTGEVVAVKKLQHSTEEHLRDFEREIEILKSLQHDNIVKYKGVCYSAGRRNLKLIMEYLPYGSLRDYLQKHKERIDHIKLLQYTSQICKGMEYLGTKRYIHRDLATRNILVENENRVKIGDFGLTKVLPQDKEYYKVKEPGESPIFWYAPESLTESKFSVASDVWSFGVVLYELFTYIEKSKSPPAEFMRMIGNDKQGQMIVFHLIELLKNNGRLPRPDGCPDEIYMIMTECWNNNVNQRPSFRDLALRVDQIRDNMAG

The term pIC50 denotes the IC50 on a negative log10 scale, so that one unit is a factor of ten. Turning to `Cc1cc(-c2c(C3CCOCC3)c3c4cc(-c5ccc(CN6CCC(S(C)(=O)=O)CC6)cc5)[nH]c4ncc3n(C)c2=O)on1` [Example 21, 6-Methyl-8-(3-methylisoxazol-5-yl)-2-(4-((4-(methylsulfonyl)piperidin-1-yl)methyl)phenyl)-9-(tetrahydro-2H-pyran-4-yl)-3,6-dihydro-7H-pyrrolo[3,2-f][1,7]naphthyridin-7-one], the pIC50 in assay [1] was at least 7.00; in assay [2], at least 7.00; in assay [3], 6.30 to 7.00; in assay [4] it was 6.30 to 7.00.
Regarding `CN(C)C(=O)c1cc2c3c(-c4ccc5c(cnn5C)c4)c(-c4cnn(C)c4)[nH]c3ncc2n(C)c1=O` [Example 43, N,N,6-trimethyl-1-(1-methyl-1H-indazol-5-yl)-2-(1-methyl-1H-pyrazol-4-yl)-7-oxo-6,7-dihydro-3H-pyrrolo[3,2-f][1,7]naphthyridine-8-carboxamide], the pIC50 in assay [1] was at least 7.00; in assay [2], at least 7.00; in assay [3], 5.00 to 6.00; in assay [4], 5.00 to 6.00.
Turning to `Cc1cc(-c2c(-c3ccc(CNC4CCCOC4)cc3)c3c4cc(-c5cnn(C)c5)[nH]c4ncc3n(C)c2=O)on1` (centres unmarked) [Example 28, 6-Methyl-2-(1-methyl-1H-pyrazol-4-yl)-8-(3-methylisoxazol-5-yl)-9-(4-(((tetrahydro-2H-pyran-3-yl)amino)methyl)phenyl)-3,6-dihydro-7H-pyrrolo[3,2-f][1,7]naphthyridin-7-one], the pIC50 was at least 7.00 in assay [1], at least 7.00 in assay [2], 6.30 to 7.00 in assay [3] and 6.30 to 7.00 in assay [4].
Consider `Cc1c(-c2ccc([N+](=O)[O-])cc2)c(=O)[nH]c2cnc3[nH]c(-c4ccc(CN5CCC(S(C)(=O)=O)CC5)cc4)cc3c12` [Example 18, 9-Methyl-2-(4-((4-(methylsulfonyl)piperidin-1-yl)methyl)phenyl)-8-(4-nitrophenyl)-3,6-dihydro-7H-pyrrolo[3,2-f][1,7]naphthyridin-7-one], for which the negative-log IC50 (pIC50) in assay [1] was 5.00 to 6.00; in assay [2] it was 6.00 to 6.30; in assay [3], 5.00 to 6.00; in assay [4], 5.00 to 6.00.
As to `CN(C)C(=O)c1ccc(-c2c(-c3cnn(C)c3)[nH]c3ncc4c(cc(NC5CCC(CC#N)CC5)c(=O)n4C)c23)cc1` (centres unmarked) [Example 38, 4-(8-((4-(cyanomethyl)cyclohexyl)amino)-6-methyl-2-(1-methyl-1H-pyrazol-4-yl)-7-oxo-6,7-dihydro-3H-pyrrolo[3,2-f][1,7]naphthyridin-1-yl)-N,N-dimethylbenzamide], the pIC50 in assay [1] is at least 7.00; in assay [2], at least 7.00; in assay [3], at least 7.00; in assay [4], 6.30 to 7.00.
In the case of `Cc1cc(=O)[nH]c2cnc3[nH]c(-c4ccc(CN5CCC(S(C)(=O)=O)CC5)cc4)cc3c12` [Example 17, 9-Methyl-2-(4-((4-(methylsulfonyl)piperidin-1-yl)methyl)phenyl)-3,6-dihydro-7H-pyrrolo[3,2-f][1,7]naphthyridin-7-one], the pIC50 in assay [1], in assay [2], in assay [3] and in assay [4] was 5.00 to 6.00 each time.
Take `Cc1cc(-c2c(-c3ccc(NC4CCOCC4)cc3)c3c4cc(-c5cnn(C)c5)[nH]c4ncc3n(C)c2=O)on1` [Example 30, 6-Methyl-2-(1-methyl-1H-pyrazol-4-yl)-8-(3-methylisoxazol-5-yl)-9-(4-((tetrahydro-2H-pyran-4-yl)amino)phenyl)-3,6-dihydro-7H-pyrrolo[3,2-f][1,7]naphthyridin-7-one]: the pIC50 in assay [1] was at least 7.00; in assay [2] it was at least 7.00; in assay [3], 6.00 to 6.30; in assay [4], 6.00 to 6.30.
For the compound `Cc1cc(-c2c(-c3ccccc3)c3c4cc(-c5cnn(C)c5)[nH]c4ncc3n(C)c2=O)on1` [Example 23, 6-methyl-2-(1-methyl-1H-pyrazol-4-yl)-8-(3-methylisoxazol-5-yl)-9-phenyl-3,6-dihydro-7H-pyrrolo[3,2-f][1,7]naphthyridin-7-one], the pIC50 is at least 7.00 in assay [1], at least 7.00 in assay [2], 6.30 to 7.00 in assay [3] and 6.30 to 7.00 in assay [4].
In the case of `Cc1cc(-c2c(-c3ccc(C(=O)NCCO)cc3)c3c4cc(-c5cnn(C)c5)[nH]c4ncc3n(C)c2=O)on1` [Example 25, N-(2-hydroxyethyl)-4-(6-methyl-2-(1-methyl-1H-pyrazol-4-yl)-8-(3-methylisoxazol-5-yl)-7-oxo-6,7-dihydro-3H-pyrrolo[3,2-f][1,7]naphthyridin-9-yl)benzamide], the pIC50 was at least 7.00 in assay [1], at least 7.00 in assay [2], 6.30 to 7.00 in assay [3] and 6.00 to 6.30 in assay [4].
Turning to `CCc1c(-c2ccc(C(=O)O)cc2)c(=O)n(C)c2cnc3[nH]c(-c4ccc(CN5CCC(S(C)(=O)=O)CC5)cc4)cc3c12` [Example 16, 4-(9-Ethyl-6-methyl-2-(4-((4-(methylsulfonyl)piperidin-1-yl)methyl)phenyl)-7-oxo-6,7-dihydro-3H-pyrrolo[3,2-f][1,7]naphthyridin-8-yl)benzoic acid], the pIC50 in assay [1] is at least 7.00; in assay [2], at least 7.00; in assay [3], 6.30 to 7.00; in assay [4], 6.30 to 7.00.
For `CCn1c(=O)c(-c2ccc(C(=O)O)cc2)cc2c3cc(-c4ccc(CN5CCC(S(C)(=O)=O)CC5)cc4)[nH]c3ncc21` [Example 15, 4-(6-Ethyl-2-(4-((4-(methylsulfonyl)piperidin-1-yl)methyl)phenyl)-7-oxo-6,7-dihydro-3H-pyrrolo[3,2-f][1,7]naphthyridin-8-yl)benzoic acid], the negative logarithm of the IC50 (pIC50) in assay [1] is 5.00 to 6.00; in assay [2] it was 6.00 to 6.30; in assay [3], 5.00 to 6.00; in assay [4], 5.00 to 6.00.
